Laboratory results published in patent US10722451B2, “Tree bark extract as anti-aging composition and uses thereof” (LES LABORATOIRES BIOFOREXTRA, priority 2017, dated 2020).

Legend:
[1] = UV protection in vitro by spectrophotometer (SPF calculation); assay type: physicochemical; conditions: 20 μg/ml in ethanol; absorbance 290-320 nm
[2] = tested on: type I Collagen in human skin fibroblasts (WS1); experiment: Stimulation of collagen type I in skin fibroblasts (immunofluorescence); assay type: cell-based; conditions: positive control at 10 ng/mL
Procedure: The effect of the extract on collagen stimulation was evaluated using specific antibodies to type I Collagen. Once bound to collagen, the primary antibody is detected by a secondary antibody on which a fluorophore is grafted. Human skin fibroblasts (WS1, ATCC CRL-1502) were seeded in 96-well microplates in a full decomplemented culture medium and incubated overnight at 37° C. and 5% CO2 to allow their adherence. Thereafter, the cells were incubated for 24 hours in the absence or presence of increasing concentrations of Red maple bark extract (12.5, 25, 50 and 100 μg/mL). The culture medium containing the extract was then removed and the cells were fixed with 95% ethanol for 10 minutes. The cells were washed three times with PBS and permeabilized with 0.5% Triton solution in PBS for 15 minutes. […] The fluorescence emitted by the secondary antibody was then measured and pictures were taken with a fluorescence microscope Cytation3.
The effect of the extract on collagen stimulation was evaluated using specific antibodies to type I Collagen. Once bound to collagen, the primary antibody is detected by a secondary antibody on which a fluorophore is grafted. […] The fluorescence emitted by the secondary antibody was then measured and pictures were taken with a fluorescence microscope Cytation3.

SPF [1] | Molecule | average increase of collagen (fluorescence) compared to untreated cells [2] [%]
3.9 ± 0.2 | CC1CC(OC(=O)c2ccccc2O)CC(C)(C)C1 (centres unmarked) [Homosalate] | 
 | TGF-β | 56
